From the supplement of paper PMC10733146

Columns and labels:
Experiment in all cases: viability relative to DMSO control (fraction); higher = less drug effect (more viable cells)
Details in all cases: 48 h
[1] = system: primary AML patient cells (S056)
Method in brief: (§1)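 Using 384-well plates with compounds already plated at five concentrations, one well per concentration, 4 × 10^4 primary mononuclear tumour cells were added per well. Cells were Ficoll-isolated from blood or bone marrow or came from processed lymph node, fresh or cryopreserved. They were kept for 48 h at 37 °C and 5% CO2 in RPMI-1640 supplemented with penicillin/streptomycin, L-glutamine and human serum, and viability was read as CellTiter-Glo luminescence relative to the median of 16 inner DMSO wells.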

[2] = system: primary AML patient cells (S085)
Method in brief: as §1

[3] = system: primary FL patient cells (S087)
Method in brief: as §1

[4] = system: primary CLL patient cells (S031)
Method in brief: as §1

[5] = system: primary T-NHL patient cells (S058)
Method in brief: as §1

[6] = system: primary AML patient cells (S019)
Method in brief: as §1

[7] = system: primary MCL patient cells (S041)
Method in brief: as §1

[8] = system: primary AML patient cells (S012)
Method in brief: as §1

[9] = system: primary AML patient cells (S006)
Method in brief: as §1

[10] = system: primary FL patient cells (S022)
Method in brief: as §1

[11] = system: primary DLBCL patient cells (S049)
Method in brief: as §1

[12] = system: primary MCL patient cells (S063)
Method in brief: as §1

[13] = system: primary ALL patient cells (S048)
Method in brief: as §1

[14] = system: primary AML patient cells (S011)
Method in brief: as §1

[15] = system: primary DLBCL patient cells (S076)
Method in brief: as §1

[16] = system: primary ALL patient cells (S088)
Method in brief: as §1

[17] = system: primary AML patient cells (S079)
Method in brief: as §1

SMILES: COc1ccc(C2=N[C@@H](c3ccc(Cl)cc3)[C@@H](c3ccc(Cl)cc3)N2C(=O)N2CCNC(=O)C2)c(OC(C)C)c1 [Nutlin-3a]
- viability ([1]; 0.032 µM): 1.1
- viability ([1]; 0.16 µM): 1.07
- viability ([1]; 0.8 µM): 0.706
- viability ([1]; 4 µM): 0.425
- viability ([1]; 20 µM): 0.45
- viability ([2]; 0.032 µM): 1.06
- viability ([2]; 0.16 µM): 1.31
- viability ([2]; 0.8 µM): 0.877
- viability ([2]; 4 µM): 0.509
- viability ([2]; 20 µM): 0.503
- viability ([3]; 0.032 µM): 0.984
- viability ([3]; 0.16 µM): 0.964
- viability ([3]; 0.8 µM): 0.931
- viability ([3]; 4 µM): 0.816
- viability ([3]; 20 µM): 0.675
- viability ([4]; 0.032 µM): 0.869
- viability ([4]; 0.16 µM): 0.929
- viability ([4]; 0.8 µM): 0.8
- viability ([4]; 4 µM): 0.451
- viability ([4]; 20 µM): 0.089
- viability ([5]; 0.032 µM): 0.946
- viability ([5]; 0.16 µM): 0.939
- viability ([5]; 0.8 µM): 0.941
- viability ([5]; 4 µM): 0.634
- viability ([5]; 20 µM): 0.18
- viability ([6]; 0.032 µM): 1.13
- viability ([6]; 0.16 µM): 1.03
- viability ([6]; 0.8 µM): 1.08
- viability ([6]; 4 µM): 0.546
- viability ([6]; 20 µM): 0.259
- viability ([7]; 0.032 µM): 0.988
- viability ([7]; 0.16 µM): 0.976
- viability ([7]; 0.8 µM): 0.921
- viability ([7]; 4 µM): 0.717
- viability ([7]; 20 µM): 0.34
- viability ([8]; 0.032 µM): 0.945
- viability ([8]; 0.16 µM): 0.946
- viability ([8]; 0.8 µM): 1.03
- viability ([8]; 4 µM): 1.01
- viability ([8]; 20 µM): 0.883
- viability ([9]; 0.032 µM): 1.01
- viability ([9]; 0.16 µM): 0.917
- viability ([9]; 0.8 µM): 0.694
- viability ([9]; 4 µM): 0.136
- viability ([9]; 20 µM): 0.0568
- viability ([10]; 0.032 µM): 0.954
- viability ([10]; 0.16 µM): 0.936
- viability ([10]; 0.8 µM): 1.02
- viability ([10]; 4 µM): 0.881
- viability ([10]; 20 µM): 0.621
- viability ([11]; 0.032 µM): 1.1
- viability ([11]; 0.16 µM): 0.987
- viability ([11]; 0.8 µM): 1.01
- viability ([11]; 4 µM): 1.04
- viability ([11]; 20 µM): 0.835
- viability ([12]; 0.032 µM): 0.998
- viability ([12]; 0.16 µM): 0.985
- viability ([12]; 0.8 µM): 0.984
- viability ([12]; 4 µM): 0.608
- viability ([12]; 20 µM): 0.215
- viability ([13]; 0.032 µM): 0.97
- viability ([13]; 0.16 µM): 0.995
- viability ([13]; 0.8 µM): 0.881
- viability ([13]; 4 µM): 0.506
- viability ([13]; 20 µM): 0.056
- viability ([14]; 0.032 µM): 0.973
- viability ([14]; 0.16 µM): 1.04
- viability ([14]; 0.8 µM): 0.8
- viability ([14]; 4 µM): 0.363
- viability ([14]; 20 µM): 0.155
- viability ([15]; 0.032 µM): 0.907
- viability ([15]; 0.16 µM): 0.909
- viability ([15]; 0.8 µM): 0.934
- viability ([15]; 4 µM): 0.737
- viability ([15]; 20 µM): 0.357
- viability ([16]; 0.032 µM): 0.954
- viability ([16]; 0.16 µM): 0.854
- viability ([16]; 0.8 µM): 0.795
- viability ([16]; 4 µM): 0.355
- viability ([16]; 20 µM): 0.133
- viability ([17]; 0.032 µM): 1.02
- viability ([17]; 0.16 µM): 1.01
- viability ([17]; 0.8 µM): 0.972
- viability ([17]; 4 µM): 0.868
- viability ([17]; 20 µM): 0.61
